Data reported in ChEMBL document CHEMBL4411291, “Synthesis and anti-tumor activity of imidazopyrazines as TAK1 inhibitors” (Eur J Med Chem, 2019).
Values belong to the compound of their own block, whether it stands above or below them. Activity calls are given as the source filed them. No cut-off for these calls is given here.

How the values were obtained:
[1] = biological target: T1, Mitogen-activated protein kinase kinase kinase 7 (Homo sapiens) (UniProt O43318); assay: Inhibition of TAK1 (unknown origin) at 1 uM by LanthaScreen Eu kinase binding assay relative to control
T1 sequence (whole entry): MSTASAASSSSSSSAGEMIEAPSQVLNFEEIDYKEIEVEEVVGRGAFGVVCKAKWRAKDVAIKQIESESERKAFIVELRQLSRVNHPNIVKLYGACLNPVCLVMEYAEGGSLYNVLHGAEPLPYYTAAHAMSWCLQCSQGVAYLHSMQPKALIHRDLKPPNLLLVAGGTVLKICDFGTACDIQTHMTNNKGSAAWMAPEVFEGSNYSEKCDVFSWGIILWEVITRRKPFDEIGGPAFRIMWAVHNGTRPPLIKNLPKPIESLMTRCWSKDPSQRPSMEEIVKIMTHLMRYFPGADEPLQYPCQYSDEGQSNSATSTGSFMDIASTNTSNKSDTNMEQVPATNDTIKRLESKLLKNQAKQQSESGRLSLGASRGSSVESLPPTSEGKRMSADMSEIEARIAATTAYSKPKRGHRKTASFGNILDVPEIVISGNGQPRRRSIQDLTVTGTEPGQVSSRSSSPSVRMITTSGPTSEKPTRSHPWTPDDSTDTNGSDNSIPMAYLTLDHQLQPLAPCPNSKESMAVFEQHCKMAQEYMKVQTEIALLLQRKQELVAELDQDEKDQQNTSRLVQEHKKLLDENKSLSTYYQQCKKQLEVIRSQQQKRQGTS

[2] = biological target: T1, Mitogen-activated protein kinase kinase kinase 7 (Homo sapiens); assay: Inhibition of TAK1 (unknown origin) at 0.1 uM by LanthaScreen Eu kinase binding assay relative to control
TAK1/TAB1 = TAK1/TAB1 (Homo sapiens, UniProt O43318); assay: Inhibition of N-terminal His-tagged human TAK1 (1 to 303 amino acids)/human TAB1 (437 to 504 amino acids) expressed in baculovirus expression system using fluorescence-labeled substrate by off-chip mobility shift assay
SK-CO-1 = assay: Growth inhibition of human SKCO1 cells after 96 hrs by SRB assay; type: functional, cell-based; conditions: SK-CO-1, 96 h
SW-620 [3] = assay: Growth inhibition of human SW620 cells after 96 hrs by SRB assay; type: functional, cell-based; conditions: SW-620, 96 h
LoVo = assay: Growth inhibition of human LoVo cells after 96 hrs by SRB assay; type: functional, cell-based
SW-620 [4] = assay: Induction of apoptosis in human SW620 cells assessed as Caspase-3 activity at 10 uM after 24 hrs by Caspase-3/7 reagent-based fluorescence assay; type: functional, cell-based
[5] = biological target: T1, Mitogen-activated protein kinase kinase kinase 7 (Homo sapiens); assay: Inhibition of TAK1 phosphorylation in human SW620 cells after 24 hrs by immunoblotting analysis; type: cell-based
[6] = Stability in human liver microsomes assessed as parent compound remaining after 60 mins in presence of NADPH by HPLC analysis; type: ADME, Microsome; conditions: read-out: Stability
[7] = Stability in mouse liver microsomes assessed as parent compound remaining after 60 mins in presence of NADPH by HPLC analysis; type: ADME, Microsome; conditions: read-out: Stability
[8] = Stability in human plasma assessed as parent compound remaining after 6 hrs by LC-MS/MS analysis; type: ADME, cell-free; conditions: read-out: Stability
[9] = Stability in mouse plasma assessed as parent compound remaining after 6 hrs by LC-MS/MS analysis; type: ADME, cell-free; conditions: read-out: Stability
[10] = AUC (0 to 7 hrs) in ICR mouse at 8.2 mg/kg, po administered as single dose or 3 mg/kg, iv by LC-MS/MS analysis; type: ADME, organism-based; conditions: in vivo
[11] = Cmax in ICR mouse at 8.2 mg/kg, po administered as single dose or 3 mg/kg, iv by LC-MS/MS analysis; type: ADME, organism-based; conditions: in vivo
[12] = Half life in ICR mouse at 8.2 mg/kg, po administered as single dose or 3 mg/kg, iv by LC-MS/MS analysis; type: ADME, organism-based; conditions: in vivo
[13] = Oral bioavailability in ICR mouse at 8.2 mg/kg administered as single dose by LC-MS/MS analysis; type: ADME, organism-based; conditions: in vivo
Cytochrome P450 3A4 = Cytochrome P450 3A4 (Homo sapiens, UniProt P08684); assay: Inhibition of CYP3A4 in liver microsomes (unknown origin) using ketoconazole as […] preincubated for 5 mins followed by NADPH addition and measured after 15 mins by LC-MS/MS analysis; type: ADME
Cytochrome P450 1A2 = Cytochrome P450 1A2 (Homo sapiens, UniProt P05177); assay: Inhibition of CYP1A2 in liver microsomes (unknown origin) using alpha-naphthoflavone as […] preincubated for 5 mins followed by NADPH addition and measured after 15 mins by LC-MS/MS analysis; type: ADME
Cytochrome P450 2C9 = Cytochrome P450 2C9 (Homo sapiens, UniProt P11712); assay: Inhibition of CYP2C9 in liver microsomes (unknown origin) using sulfaphenazole as […] preincubated for 5 mins followed by NADPH addition and measured after 15 mins by LC-MS/MS analysis; type: ADME
Cytochrome P450 2C19 = Cytochrome P450 2C19 (Homo sapiens, UniProt P33261); assay: Inhibition of CYP2C19 in liver microsomes (unknown origin) using (+/-) N-3-benzylnirvanol as […] preincubated for 5 mins followed by NADPH addition and measured after 15 mins by LC-MS/MS analysis; type: ADME
Cytochrome P450 2B6 = Cytochrome P450 2B6 (Homo sapiens, UniProt P20813); assay: Inhibition of CYP2B6 in liver microsomes (unknown origin) using clopidogrel as […] preincubated for 5 mins followed by NADPH addition and measured after 15 mins by LC-MS/MS analysis; type: ADME
[14] = biological target: Voltage-gated inwardly rectifying potassium channel KCNH2 (Homo sapiens, UniProt Q12809); assay: Binding affinity to human ERG by fluorescence polarization assay
[15] = biological target: Serine/threonine-protein kinase B-raf (Homo sapiens) (UniProt P15056); assay: Inhibition of BRAF (unknown origin) at 1 uM by LanthaScreen Eu kinase binding assay relative to control
[16] = biological target: Tyrosine-protein kinase BTK (Homo sapiens) (UniProt Q06187); assay: Inhibition of BTK (unknown origin) at 1 uM by LanthaScreen Eu kinase binding assay relative to control
[17] = biological target: CDK2/Cyclin A2 (Homo sapiens) (UniProt P24941+P20248); assay: Inhibition of CDK2/cyclin A (unknown origin) at 1 uM by LanthaScreen Eu kinase binding assay relative to control; type: protein-complex assay
[18] = biological target: Epidermal growth factor receptor (Homo sapiens) (UniProt P00533); assay: Inhibition of EGFR (unknown origin) at 1 uM by LanthaScreen Eu kinase binding assay relative to control
[19] = biological target: Glycogen synthase kinase-3 beta (Homo sapiens) (UniProt P49841); assay: Inhibition of GSK3b (unknown origin) at 1 uM by LanthaScreen Eu kinase binding assay relative to control
[20] = biological target: Inhibitor of nuclear factor kappa-B kinase subunit beta (Homo sapiens) (UniProt O14920); assay: Inhibition of IKKbeta (unknown origin) at 1 uM by LanthaScreen Eu kinase binding assay relative to control
[21] = biological target: Mitogen-activated protein kinase 14 (Homo sapiens) (UniProt Q16539); assay: Inhibition of […] (unknown origin) at 1 uM by LanthaScreen Eu kinase binding assay relative to control
[22] = biological target: High affinity nerve growth factor receptor (Homo sapiens) (UniProt P04629); assay: Inhibition of NTRK1 (unknown origin) at 1 uM by LanthaScreen Eu kinase binding assay relative to control
[23] = biological target: Platelet-derived growth factor receptor alpha (Homo sapiens) (UniProt P16234); assay: Inhibition of PDGFRalpha (unknown origin) at 1 uM by LanthaScreen Eu kinase binding assay relative to control
[24] = biological target: Ribosomal protein S6 kinase alpha-1 (Homo sapiens) (UniProt Q15418); assay: Inhibition of RPS6KA1 (unknown origin) at 1 uM by LanthaScreen Eu kinase binding assay relative to control
SW-620 [25] = assay: Antitumor activity against human SW620 cells xenografted in CAnN.Cg-Foxnlnu/Crljbgi nude mouse assessed as tumor growth inhibition at 100 mg/kg, po dosed daily for 14 consecutive days; type: functional, organism-based
[26] = Toxicity in CAnN.Cg-Foxnlnu/Crljbgi nude mouse xenografted with human SW620 cells assessed as weight loss at 100 mg/kg, po dosed daily for 14 consecutive days; type: organism-based; conditions: in vivo
[27] = Toxicity in CAnN.Cg-Foxnlnu/Crljbgi nude mouse xenografted with human SW620 cells at 100 mg/kg, po dosed daily for 14 consecutive days; type: organism-based; conditions: in vivo
[28] = Toxicity in CAnN.Cg-Foxnlnu/Crljbgi nude mouse xenografted with human SW620 cells assessed as weight loss at 30 mg/kg, po dosed daily for 14 consecutive days; type: organism-based; conditions: in vivo
SW-620 [29] = assay: Antitumor activity against human SW620 cells xenografted in CAnN.Cg-Foxnlnu/Crljbgi nude mouse assessed as tumor growth inhibition at 30 mg/kg, po dosed daily for 14 consecutive days; type: functional, organism-based

Cytochrome P450 2C19, sequence (P33261 whole entry): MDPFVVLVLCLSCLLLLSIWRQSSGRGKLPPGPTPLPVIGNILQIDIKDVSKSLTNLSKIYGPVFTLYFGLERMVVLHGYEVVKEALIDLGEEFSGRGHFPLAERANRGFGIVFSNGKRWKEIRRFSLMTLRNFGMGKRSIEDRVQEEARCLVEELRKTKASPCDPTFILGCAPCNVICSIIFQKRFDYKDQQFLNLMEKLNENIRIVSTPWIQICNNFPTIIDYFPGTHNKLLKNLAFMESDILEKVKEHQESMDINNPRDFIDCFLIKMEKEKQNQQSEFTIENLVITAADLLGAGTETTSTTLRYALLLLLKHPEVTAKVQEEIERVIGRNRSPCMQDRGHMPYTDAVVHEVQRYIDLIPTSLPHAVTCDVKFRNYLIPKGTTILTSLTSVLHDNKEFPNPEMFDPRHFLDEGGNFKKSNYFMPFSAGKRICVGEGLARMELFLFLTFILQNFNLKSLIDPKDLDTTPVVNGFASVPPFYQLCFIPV
Tyrosine-protein kinase BTK (Homo sapiens), sequence (Q06187 whole entry): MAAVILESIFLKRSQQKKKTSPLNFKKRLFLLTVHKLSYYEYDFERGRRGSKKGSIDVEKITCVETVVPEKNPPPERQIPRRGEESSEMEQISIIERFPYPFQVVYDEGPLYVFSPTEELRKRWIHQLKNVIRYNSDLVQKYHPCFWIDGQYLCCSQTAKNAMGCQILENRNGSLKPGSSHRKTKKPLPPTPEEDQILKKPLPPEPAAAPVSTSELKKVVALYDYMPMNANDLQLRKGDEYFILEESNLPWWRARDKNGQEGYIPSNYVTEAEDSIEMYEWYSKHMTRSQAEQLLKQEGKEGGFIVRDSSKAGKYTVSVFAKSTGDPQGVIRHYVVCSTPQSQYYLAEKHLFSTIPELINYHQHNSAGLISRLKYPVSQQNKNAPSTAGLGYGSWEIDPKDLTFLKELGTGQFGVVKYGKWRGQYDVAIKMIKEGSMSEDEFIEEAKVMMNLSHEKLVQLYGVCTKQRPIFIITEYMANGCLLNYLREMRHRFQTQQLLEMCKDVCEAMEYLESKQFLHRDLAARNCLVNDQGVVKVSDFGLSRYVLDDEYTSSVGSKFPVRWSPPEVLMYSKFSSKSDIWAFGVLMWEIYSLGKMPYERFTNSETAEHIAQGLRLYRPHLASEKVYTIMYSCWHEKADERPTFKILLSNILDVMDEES
Cytochrome P450 1A2, sequence (P05177 whole entry): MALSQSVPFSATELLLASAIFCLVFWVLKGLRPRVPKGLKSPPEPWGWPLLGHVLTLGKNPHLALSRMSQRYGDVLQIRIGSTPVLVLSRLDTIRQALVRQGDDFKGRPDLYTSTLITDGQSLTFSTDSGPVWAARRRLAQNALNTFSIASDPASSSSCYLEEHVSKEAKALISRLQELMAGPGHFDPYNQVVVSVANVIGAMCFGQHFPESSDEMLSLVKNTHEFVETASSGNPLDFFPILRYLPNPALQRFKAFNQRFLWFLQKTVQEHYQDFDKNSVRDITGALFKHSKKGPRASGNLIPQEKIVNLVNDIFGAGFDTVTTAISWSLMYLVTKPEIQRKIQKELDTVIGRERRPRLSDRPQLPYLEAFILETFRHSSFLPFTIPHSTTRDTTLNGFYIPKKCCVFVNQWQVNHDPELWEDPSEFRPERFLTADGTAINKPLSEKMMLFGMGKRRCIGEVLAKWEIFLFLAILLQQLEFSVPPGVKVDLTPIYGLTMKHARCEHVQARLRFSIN
Cytochrome P450 2C9, sequence (P11712 whole entry): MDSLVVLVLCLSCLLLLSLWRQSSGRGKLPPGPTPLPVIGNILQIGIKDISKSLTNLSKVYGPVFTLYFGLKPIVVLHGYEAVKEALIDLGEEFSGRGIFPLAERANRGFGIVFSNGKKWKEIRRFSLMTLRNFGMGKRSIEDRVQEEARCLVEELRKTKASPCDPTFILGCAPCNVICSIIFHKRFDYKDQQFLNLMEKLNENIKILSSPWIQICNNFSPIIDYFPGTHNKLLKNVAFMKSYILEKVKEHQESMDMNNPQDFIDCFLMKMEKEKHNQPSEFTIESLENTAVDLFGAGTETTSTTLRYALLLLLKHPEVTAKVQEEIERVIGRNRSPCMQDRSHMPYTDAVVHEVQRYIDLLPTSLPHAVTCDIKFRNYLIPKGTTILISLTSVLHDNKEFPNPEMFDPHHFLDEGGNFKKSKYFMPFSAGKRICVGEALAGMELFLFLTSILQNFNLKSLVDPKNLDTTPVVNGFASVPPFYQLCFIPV
Inhibitor of nuclear factor kappa-B kinase subunit beta (Homo sapiens), sequence (O14920 whole entry): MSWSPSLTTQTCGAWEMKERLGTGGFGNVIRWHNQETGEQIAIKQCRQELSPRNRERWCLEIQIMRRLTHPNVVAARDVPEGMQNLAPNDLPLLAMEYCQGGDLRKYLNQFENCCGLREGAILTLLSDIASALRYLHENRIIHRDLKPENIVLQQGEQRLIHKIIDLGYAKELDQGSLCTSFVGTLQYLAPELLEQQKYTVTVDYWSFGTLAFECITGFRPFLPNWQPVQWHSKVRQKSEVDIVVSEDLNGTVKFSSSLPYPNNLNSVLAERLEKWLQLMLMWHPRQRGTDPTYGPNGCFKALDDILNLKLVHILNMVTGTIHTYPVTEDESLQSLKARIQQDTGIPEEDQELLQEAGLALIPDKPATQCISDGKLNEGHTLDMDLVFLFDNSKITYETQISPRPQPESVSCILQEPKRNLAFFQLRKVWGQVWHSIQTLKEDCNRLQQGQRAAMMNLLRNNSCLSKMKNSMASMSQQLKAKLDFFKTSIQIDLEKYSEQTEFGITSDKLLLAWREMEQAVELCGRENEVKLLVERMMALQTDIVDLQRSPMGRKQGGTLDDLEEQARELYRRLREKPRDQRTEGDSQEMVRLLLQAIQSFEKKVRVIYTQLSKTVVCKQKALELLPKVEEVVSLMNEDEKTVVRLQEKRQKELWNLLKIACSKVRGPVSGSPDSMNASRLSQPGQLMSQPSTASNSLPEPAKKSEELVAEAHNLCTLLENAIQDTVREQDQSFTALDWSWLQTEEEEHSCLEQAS
Cytochrome P450 3A4, sequence (P08684 whole entry): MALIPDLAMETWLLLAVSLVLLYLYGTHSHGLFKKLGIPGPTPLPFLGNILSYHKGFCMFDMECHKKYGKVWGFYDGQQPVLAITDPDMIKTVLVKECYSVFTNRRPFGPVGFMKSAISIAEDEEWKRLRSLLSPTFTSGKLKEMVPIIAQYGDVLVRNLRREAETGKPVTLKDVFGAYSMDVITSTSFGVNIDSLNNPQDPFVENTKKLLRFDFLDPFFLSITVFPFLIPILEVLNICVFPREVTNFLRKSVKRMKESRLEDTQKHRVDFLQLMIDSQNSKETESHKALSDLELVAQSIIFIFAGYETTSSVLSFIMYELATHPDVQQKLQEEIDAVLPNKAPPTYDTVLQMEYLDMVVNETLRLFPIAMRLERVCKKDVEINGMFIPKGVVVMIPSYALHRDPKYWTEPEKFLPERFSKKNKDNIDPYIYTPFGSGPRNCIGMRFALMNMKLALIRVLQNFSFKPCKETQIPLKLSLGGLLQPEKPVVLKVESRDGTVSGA
Glycogen synthase kinase-3 beta (Homo sapiens), sequence (P49841 whole entry, looked up): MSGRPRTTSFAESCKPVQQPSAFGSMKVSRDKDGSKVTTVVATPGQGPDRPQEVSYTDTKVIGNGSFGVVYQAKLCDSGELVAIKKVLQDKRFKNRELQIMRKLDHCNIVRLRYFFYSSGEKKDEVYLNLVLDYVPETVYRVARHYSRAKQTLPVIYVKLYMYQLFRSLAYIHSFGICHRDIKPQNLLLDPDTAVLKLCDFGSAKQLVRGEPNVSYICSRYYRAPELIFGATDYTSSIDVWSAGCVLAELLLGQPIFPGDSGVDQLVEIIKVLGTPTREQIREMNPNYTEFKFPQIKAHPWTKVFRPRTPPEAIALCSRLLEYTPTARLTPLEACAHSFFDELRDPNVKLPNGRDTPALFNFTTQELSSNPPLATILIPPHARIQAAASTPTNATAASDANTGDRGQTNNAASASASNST
Platelet-derived growth factor receptor alpha (Homo sapiens), sequence (P16234 whole entry): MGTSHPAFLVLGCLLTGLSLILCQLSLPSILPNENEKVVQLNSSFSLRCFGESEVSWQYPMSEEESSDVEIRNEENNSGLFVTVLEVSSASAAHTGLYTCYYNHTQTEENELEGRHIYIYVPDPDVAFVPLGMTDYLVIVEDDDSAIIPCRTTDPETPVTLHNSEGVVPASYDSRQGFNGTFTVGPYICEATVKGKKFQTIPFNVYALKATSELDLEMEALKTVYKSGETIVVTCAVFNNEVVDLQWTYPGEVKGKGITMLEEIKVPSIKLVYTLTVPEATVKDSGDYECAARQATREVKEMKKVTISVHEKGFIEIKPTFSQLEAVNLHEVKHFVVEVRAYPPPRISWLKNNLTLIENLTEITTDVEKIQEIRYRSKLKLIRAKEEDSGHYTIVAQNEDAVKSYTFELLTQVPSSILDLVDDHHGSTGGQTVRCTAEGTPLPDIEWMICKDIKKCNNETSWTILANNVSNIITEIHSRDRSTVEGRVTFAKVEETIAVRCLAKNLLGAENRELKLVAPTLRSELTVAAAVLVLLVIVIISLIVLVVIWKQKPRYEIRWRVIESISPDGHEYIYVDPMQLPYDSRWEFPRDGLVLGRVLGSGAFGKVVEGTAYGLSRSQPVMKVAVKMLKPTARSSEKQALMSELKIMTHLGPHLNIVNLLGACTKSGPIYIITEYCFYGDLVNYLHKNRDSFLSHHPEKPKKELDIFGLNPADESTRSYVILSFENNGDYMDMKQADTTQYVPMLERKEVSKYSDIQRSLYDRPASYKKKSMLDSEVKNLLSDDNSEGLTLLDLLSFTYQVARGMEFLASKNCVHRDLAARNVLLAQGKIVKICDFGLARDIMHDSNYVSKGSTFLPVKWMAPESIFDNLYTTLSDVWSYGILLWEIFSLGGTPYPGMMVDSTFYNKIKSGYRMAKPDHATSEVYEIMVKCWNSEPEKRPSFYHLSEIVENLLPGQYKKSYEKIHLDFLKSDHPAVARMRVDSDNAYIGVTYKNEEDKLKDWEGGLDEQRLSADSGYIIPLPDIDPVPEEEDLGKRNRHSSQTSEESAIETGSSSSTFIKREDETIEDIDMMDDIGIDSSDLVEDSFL

inhibition [1]: 91%
inhibition [2]: 7%
SMILES: Cc1ccc(-n2nc(C(C)(C)C)cc2NC(=O)Nc2ccc(-c3cnc(NC4CC4)c4nccn34)c(C)c2)cc1

inhibition [1]: 94%
inhibition [2]: 34%
SMILES: Cc1cc(NC(=O)Nc2cc(C(C)(C)C)nn2-c2cccc(F)c2)ccc1-c1cnc(NC2CC2)c2nccn12

inhibition [1]: 74%
inhibition [2]: 18%
SMILES: Cc1cc(NC(=O)Nc2cc(C(C)(C)C)nn2-c2cccc(Cl)c2)ccc1-c1cnc(NC2CC2)c2ncnn12

Further lines, the compound ahead of its results:

SMILES: Cc1cc(NC(=O)Nc2cc(C(C)(C)C)nn2-c2cccc(Cl)c2)ccc1-c1cnc(NC2CC2)c2nccn12
inhibition [1]: 84%
inhibition [2]: 16%

SMILES: Cc1cc(NC(=O)Nc2cc(C(C)(C)C)nn2-c2ccc(F)cc2)ccc1-c1cnc(NC2CC2)c2nccn12
inhibition [1]: 69%
inhibition [2]: 0%

SMILES: Cc1cc(C(=O)Nc2cc(C(C)(C)C)nn2-c2ccccc2)ccc1Oc1cnc(NC2CC2)c2nccn12
inhibition [1]: 3%
inhibition [2]: 4%

SMILES: Cc1cc(NC(=O)Nc2cc(C(C)(C)C)nn2-c2ccccc2)ccc1-c1cnc(NC2CC2)c2nccn12
IC50 (TAK1/TAB1): 37 nM
inhibition [1]: 98%
inhibition [2]: 56%
IC50 (SK-CO-1): 274 nM
IC50 (SW-620 [3]): 330 nM
IC50 (LoVo): 391 nM
Activity (SW-620 [4]): Active
inhibition [5]: Dose-dependent effect
remaining at 1 h [6]: 37%
remaining at 1 h [7]: 44%
remaining at 6 h [8]: 90%
remaining at 6 h [9]: 88%
AUC(0-t) [10]: 3140 ng·h/mL
Cmax [11]: 1930 ng/mL
half-life [12]: 1.6 h
bioavailability [13]: 25.2%
IC50 (Cytochrome P450 3A4): 3520 nM
IC50 (Cytochrome P450 1A2): > 25000 nM
IC50 (Cytochrome P450 2C9): 3500 nM
IC50 (Cytochrome P450 2C19): > 25000 nM
IC50 (Cytochrome P450 2B6): > 25000 nM
IC50 [14]: > 50000 nM
inhibition [15]: 37%
inhibition [16]: 0%
inhibition [17]: 1%
inhibition [18]: 45%
inhibition [19]: 51%
inhibition [20]: 0%
inhibition [21]: 82%
inhibition [22]: 82%
inhibition [23]: 88%
inhibition [24]: 4%
Activity (SW-620 [25]): Active
Activity [26]: Non-Toxic
Activity [27]: Non-Toxic

SMILES: CCc1cc(Nc2ncc(F)c(-c3cnc4cccnn34)n2)cc(OCCN2CCC(O)CC2)c1
inhibition [1]: 98%
inhibition [2]: 96%
IC50 (SK-CO-1): 61 nM
IC50 (SW-620 [3]): 38 nM
IC50 (LoVo): 75 nM
Activity [28]: Toxic
TGI (SW-620 [29]): Active

SMILES: Cc1cc(NC(=O)Nc2cc(C(C)(C)C)nn2-c2cccc(C#N)c2)ccc1-c1cnc(NC2CC2)c2ncnn12
inhibition [1]: 92%
inhibition [2]: 36%
